Experimental data: publication PMC12188297 (2025)

Tested on: flexible GA-rich RNA, 5'-U(GAAG)2GU (RNA, single strand) UGAAGGAAGGU
Assay: fluorescence polarization (intrinsic ligand fluorescence)
Details: Na+ 50 mM; 25 mM MES, 0.002% Triton X, pH 6.1, 25 °C, 0.1 μM ligand

| Compound | Kd [µM] |
| --- | --- |
| Cc1nc2c(F)cc(-c3cc4ccc(N5CCN[C@@H](C)C5)cc4oc3=O)cc2o1 | > 100 |
| Cc1cn2cc(-c3cc4ccc(N5CCN(CC6CC6)[C@@H](C)C5)cc4oc3=O)cc(F)c2n1 | 2.7 ± 0.1 |
| COc1ccc2nc(-c3cc4ccc(N5CCNCC5)cc4oc3=O)cn2c1 | 29.7 ± 3.0 |
| CCN1CCN(c2ccc3cc(-c4cc(F)c5nc(C)cn5c4)c(=O)oc3c2)C[C@@H]1C | 3.06 ± 0.3 |
| Cc1cn2cc(-c3cc4ccc(N5CC6CCC(C5)N6)cc4oc3=O)cc(F)c2n1 | 71.0 ± 2.3 |
| CCN1CCN(c2ccc3cc(-c4cn5cc(C)nc(C)c5n4)c(=O)oc3c2)C[C@@H]1C | 14.1 ± 0.9 |
| O=c1oc2cc(N3CCNCC3)ccc2cc1-c1cn2ccc(C(F)(F)F)cc2n1 | 21.8 ± 0.2 |
| Cc1cn2cc(-c3cc4ccc(N5CCN[C@@H](C)C5)cc4n(-c4ccccc4)c3=O)cc(F)c2n1 | 78.1 ± 9.7 |
| COc1c(N2CCN[C@@H](C)C2)ccc2cc(-c3cc(F)c4nc(C)cn4c3)c(=O)n(C)c12 | 22.1 ± 2.7 |
| Cc1cn2cc(-c3nc4ccc(N5CCN[C@@H](C)C5)cc4s3)c(F)cc2n1 | 38.9 ± 6.6 |
| O=c1oc2cc(N3CCNCC3)ccc2cc1-c1cn2ccccc2n1 | 14.5 ± 1.3 |
| O=c1oc2cc(N3CCNCC3)ccc2cc1-c1cn2ccc(Cl)cc2n1 | 25.9 ± 6.0 |
| COc1ccn2cc(-c3cc4ccc(N5CCNCC5)cc4oc3=O)nc2c1 | 10.7 ± 0.1 |
| Cc1cn2cc(-c3nc4sc(N5CCN(C)CC5)cc4s3)cc(F)c2n1 | 35.7 ± 0.01 |

Tested on: flexible GA-rich RNA, 5'-U(GAAG)2GU (RNA, single strand) UGAAGGAAGGU
Assay: fluorescence polarization
Details: Na+ 50 mM; 25 mM MES pH 6.1, 0.002% Triton X, 25 °C; ligand fluorescence

| Compound | Kd [µM] |
| --- | --- |
| Cc1cn2cc(-c3cc4ccc(N5CCN[C@@H](C)C5)cc4n4cnnc34)cc(F)c2n1 | 16.4 ± 1.1 |
| Cc1cn2cc(-c3cc4ccc(N5CCN(C)CC5)cc4oc3=O)cc(F)c2n1 | 10.88 ± 0.3 |
| Cc1cn2cc(-c3cc4ccc(N5CCN[C@@H](C)C5)cc4[nH]c3=O)cc(F)c2n1 | 33.3 ± 1.3 |
| CNC1CCN(c2ccc3cc(-c4cc(F)c5nc(C)cn5c4)c(=O)oc3c2)CC1 | 16.7 ± 0.5 |
| CNC1CCN(c2ccc3cc(-c4cc(F)c5nc(C)cn5c4)c(=O)oc3c2)C1 (centres unmarked) | 19.3 ± 2.3 |
| O=c1oc2cc(N3CCNCC3)ccc2cc1-c1ccc2ncccc2c1 | 17.8 ± 3.9 |
| CN1CCN(c2cc(F)c3cc(-c4ccc(Cl)cc4)c(=O)oc3c2)CC1 | 42.8 ± 2.7 |
| COc1cn2cc(-c3cc4ccc(N5CCNCC5)cc4oc3=O)nc2cn1 | 39.6 ± 0.4 |
| Cc1cn2cc(-c3cc4ccc(N5CCN[C@@H](C)C5)cc4n(CCO)c3=O)cc(F)c2n1 | 40.1 ± 5.2 |
| CCn1c(=O)c(-c2cc(F)c3nc(C)cn3c2)cc2ccc(N3CCN[C@@H](C)C3)cc21 | 39.7 ± 11.5 |
| Cc1cn2cc(-c3cc4ccc(NC5CNC5)cc4oc3=O)cc(F)c2n1 | 15.6 ± 0.7 |
| CN1CCN(c2ccc3cc(-c4ccc(Cl)cc4)c(=O)oc3c2)CC1 | 37.2 ± 1.0 |
| C[C@H]1CN(c2ccc3cc(-c4cc(F)c5c(cnn5C)c4)c(=O)oc3c2)CCN1 | 11.6 ± 0.01 |
| O=c1oc2cc(N3CCNCC3)ccc2cc1-c1ccc2ccccc2c1 | 34.1 ± 0.6 |
| Cc1cn2cc(-c3cc4ccc(N5CCN(C)CC5)cc4oc3=O)nc2c(C)n1 | 40.4 ± 6.5 |
| Cc1cn2cc(-c3cc4ccc(N5CCN[C@@H](C)C5)cc4oc3=O)cc(F)c2n1 | 14.3 ± 1.1 |
| Cc1cn2cc(-c3cc4ccc(N5CCN(CC6CCOCC6)[C@@H](C)C5)cc4oc3=O)cc(F)c2n1 | 12.0 ± 0.4 |
| Cc1cn2cc(-c3cc4ccc(N5CC6CC(C5)N6)cc4oc3=O)cc(F)c2n1 | 10.7 ± 0.9 |
| Cc1cn2cc(-c3cc4ccc(N5CCN[C@@H](C)C5)c(C)c4oc3=O)cc(F)c2n1 | 11.1 ± 2.8 |
| C[C@H]1CN(c2ccc3cc(-c4cc(F)c5nn(C)cc5c4)c(=O)oc3c2)CCN1 | 12.6 ± 0.4 |
| Cc1cn2cc(-c3cc4ccc(N5CC6(CNC6)C5)cc4oc3=O)cc(F)c2n1 | 32.0 ± 2.1 |
| Cc1cn2cc(-c3cc4ccc(N5CCN[C@@H](C)C5)cc4n(CC4CC4)c3=O)cc(F)c2n1 | 42.6 ± 15.2 |
| Cc1cn2cc(-c3cc4ccc(N5CC6CCCNC6C5)cc4oc3=O)cc(F)c2n1 (centres unmarked) | 13.5 ± 2.0 |
| Cc1cn2cc(-c3cc4ccc(N5CCN[C@@H](CO)C5)cc4oc3=O)cc(F)c2n1 | 11.9 ± 0.9 |
| Cc1nccn2cc(-c3cc4ccc(N5CCN[C@@H](C)C5)cc4oc3=O)nc12 | 39.9 ± 11.5 |
| Cc1cn2cc(-c3cc4c(C)cc(N5CCN[C@@H](C)C5)cc4oc3=O)cc(F)c2n1 | 19.3 ± 0.9 |
| Cc1cn2cc(-c3cc4ccc(N5CC6CNCC6C5)cc4oc3=O)cc(F)c2n1 (centres unmarked) | 18.2 ± 1.9 |
